# Patent US10799499B2, “Combinatorial therapies of neurological disorders” (PHARNEXT, priority 2016, dated 2020)
# Legend:
# [1] = system: primary cortical neuron cells; assay: Toxicity of human Aβ1-42 peptide on primary cortical neuron cells (MAP2 antibody labelling); type: cell-based, rat; conditions: combinations versus drugs used alone at the same doses
# Method: Effect on the Toxicity of Human Aβ1-42 Peptide on Primary Cortical Neuron Cells.
# Culture of Primary Cortical Neurons
# Rat cortical neurons are cultured as described by Singer et al.. Briefly pregnant female rats of 15 days gestation were killed by cervical dislocation (Rats Wistar) and the foetuses were removed from the uterus. The cortex was removed and placed in ice-cold medium of Leibovitz (L15) containing 2% of Penicillin 10.000 U/ml and Streptomycin 10 mg/ml and 1% of bovine serum albumin (BSA). Cortices were dissociated by trypsin for 20 min at 37° C. (0.05%). The reaction was stopped by the addition of Dulbecco's modified Eagle's medium (DMEM) containing DNase 1 grade II and 10% of fetal calf serum (FCS). Cells were then mechanically dissociated by 3 serial passages through a 10 ml pipette and centrifuged at 515×g for […] at +4° C. The supernatant was discarded and the pellet of cells was re-suspended in a defined culture medium consisting of Neurobasal supplemented with B27 (2%), L-glutamine (0.2 mM), 2% of PS solution and 10 ng/ml of BDNF. Viable cells are counted in a Neubauer cytometer using the trypan blue exclusion test. The cells are seeded at a density of 30 000 cells/well in 96 well-plates (wells were pre-coated with poly-L-lysine (10 μg/ml)) and are cultured at +37° C. in a humidified air (95%)/CO2 (5%) atmosphere.
# Three independent cultures are performed per condition, 6 wells per condition.
# Test compounds and Human Amyloid-β1-42 Treatment
# Briefly, Aβ1-42 peptide is reconstituted in define culture medium at 40 μM (mother solution) and was slowly shaken at +37° C. for 3 days in dark. The control medium is prepared in the same conditions.
# After 3 days, the solution is used on primary cortical neurons as follows.
# After 10 days of neuron culture, test compounds and combinations thereof are solved in culture medium (+0.1% DMSO) and then pre-incubated with neurons for one hour before the Aβ1_42 application (in a final volume per culture well of 100 μl). One hour after test compound(s) incubation, 100 μl of Aβ1-42 peptide is added to a final concentration of 10 μM diluted in presence of drug(s), in order to avoid further test compound(s) dilutions. Cortical neurons are intoxicated for 24 h. Three separate cultures are performed per condition, 6 wells per condition.
# BDNF (50 ng/ml) is used as positive control. Three separate cultures are performed per condition, 12 wells per condition.
# MAP2 Antibody Labelling Assay
# 24 hours after intoxication, the cell culture supernatant is taken off and the cortical neurons are fixed by a cold solution of ethanol (95%) and acetic acid (5%) for 5 min at −20° C. After permeabilization with 0.1% of saponin, cells are incubated for 2 h with mouse monoclonal antibody anti microtubule-associated-protein 2 (MAP-2; Sigma) at dilution of 1/400 in PBS containing 1% fetal calf serum and 0.1% of saponin (this antibody stains specifically cell bodies and neurites, allowing study of both the neurite network and cell death). […] For each condition, 30 pictures per well are taken using InCell Analyzer™ 1000 (GE Healthcare) with 20× magnification. All images are taken with the same conditions. Analysis of total neurite network and number of neurons is performed automatically by using Developer software (GE Healthcare).
# Data are expressed in percentage of control conditions (no intoxication, no amyloid=100%) in order to express the amyloid injury. All values are expressed as mean+/−SEM (s.e.mean) of the 3 cultures (n=6 wells per condition). Statistical analyses are done on the different conditions (one-way ANOVA followed by the Dunnett's test when it is allowed, Statview software version 5.0).
# Male Swiss mice [2] = assay: Spontaneous alternation in the Y-maze (spatial working memory) in mice injected ICV with Aβ25-35; type: in vivo, mouse; conditions: oral gavage Day 0 to Day 10, quinoline 1 mg/Kg once a day, baclofen 480 μg/Kg and acamprosate 32 μg/Kg twice a day, test at Day 8
# Method: (§1) The peptide amyloid-β25-35 (Aβ25-35) is the hydrophobic part of the full-length amyloid peptide. Injection of this peptide in the brain ventricles of rodents is known to induce a progressive neurodegenerative processes resulting in cognitive impairments. This model is commonly used for diseases involving cognitive impairment symptoms.
# (§2) Male Swiss mice were administered from Day 0 to Day 10 with sham product (group 1 and 2); 3-phenylsulfonyl-8-(piperazin-1-yl) quinoline (group 3); baclofen and acamprosate (group 4); or 3-phenylsulfonyl-8-(piperazin-1-yl) quinoline, baclofen and acamprosate (group 5).
# (§3) 3-phenylsulfonyl-8-(piperazin-1-yl) quinoline) was administered orally by gavage once a day (1 mg/Kg of the individual body weight of each mouse.
# (§4) A composition of baclofen and acamprosate was administered orally by gavage twice a day (respectively 480 μg/Kg and 32 μg/Kg of the individual body weight of each mouse).
# (§5) At Day 1, oligomeric Aβ25-35 peptide was injected ICV (intracerebroventricular) to provoke amyloid toxicity (group 2, 3, 4 and 5). […]
# Animals were tested for spontaneous alternation performance in the Y-maze, an index of spatial working memory. […] The number of maximum alternations was therefore the total number of arm entries minus two and the percentage of alternation was calculated as (actual alternations/maximum alternations)×100. […]
# Male Swiss mice [3] = assay: Step-through passive avoidance test (contextual long-term memory) in mice injected ICV with Aβ25-35; type: in vivo, mouse; conditions: oral gavage Day 0 to Day 10, quinoline 1 mg/Kg once a day, baclofen 480 μg/Kg and acamprosate 32 μg/Kg twice a day, retention at Day 10
# Method: as §1, §2, §3, §4, §5
# All animals were tested for passive avoidance performance, an index of contextual long-term memory. […] The step-through latency, that is, the latency spent to enter the darkened compartment, and the number of vocalizations were recorded. […] The step-through latency was recorded up to 300 s.
SMILES,protective effect on neuronal cells against Aβ1-42 toxicity [1],"effect on the impairment of cognitive function induced by Aβ(25-35), Y-maze (Male Swiss mice [2])","effect on the impairment of cognitive function induced by Aβ(25-35), step-through passive avoidance (Male Swiss mice [3])"
NCC(CC(=O)O)c1ccc(Cl)cc1 (centres unmarked) [baclofen],no or a marginal protective effect,–,–
O=S(=O)(c1ccccc1)c1cnc2c(N3CCNCC3)cccc2c1 [3-phenylsulfonyl-8-(piperazin-1-yl) quinoline],no or a marginal protective effect,did not show any significant effect,did not show any significant effect
CC12CC3CC(C)(C1)CC(N)(C3)C2 [memantine],no or a marginal protective effect,–,–
CC(=O)NCCCS(=O)(=O)O [acamprosate],no or a marginal protective effect,–,–
Nc1c2c(nc3ccccc13)CCCC2 [tacrine],no or a marginal protective effect,–,–
CCN(C)C(=O)Oc1cccc([C@H](C)N(C)C)c1 [rivastigmine],no or a marginal protective effect,–,–
